This data set in a line: in vitro. Particulars: human, hela cells, % viability.

`O=C(O)Cc1nn(Cc2ccccc2)c(=O)c2ccccc12` [CBK262315]: the viability at 28.5 h, 10 µM was found to be 115%.
For `O=C(NCCCC1CCOC1)c1cc2ccc(F)cc2[nH]1` (stereo not shown) [CBK283213], the viability at 28.5 h, 10 µM was found to be 110%.
In the case of `CS(=O)(=O)N1CCCC(C(=O)Nc2cccc3cccnc23)C1` (stereo not shown) [CBK299783], the viability at 28.5 h, 10 µM came out at 90.8%.
As for `O=C(Cn1c(=O)oc2ccccc21)Nc1ccc(N2CCOCC2)c(Cl)c1` [CBK270079], the viability at 28.5 h, 10 µM stood at 102%.
On to `C1=NC2C(COCc3ccccc3)CCC2N1c1ccccc1` (stereo not shown) [CBK010679], for which the viability at 28.5 h, 10 µM is 107%.
For `CCN(C(=O)Cn1c(C)cc(=O)c2ccccc21)C1CCOC(C)(C)C1` (stereo not shown) [CBK306797], the viability at 28.5 h, 10 µM is 93.6%.
On to `CCc1nc2c(OCC3CCCCO3)cccn2c1N(C)C(=O)c1ccc2c(c1)OCO2` (stereo not shown) [CBK147860], for which the viability at 28.5 h, 10 µM stood at 82.9%.
In the case of `FC(F)(F)Oc1ccc(-c2nccnc2OCC2COc3ccccc3O2)cc1` (stereo not shown) [CBK106845], the viability at 28.5 h, 10 µM is 97.7%.
In the case of `CS(=O)(=O)N(CC(=O)Nc1ccccc1-c1ccccc1)c1ccc(F)c(Cl)c1` [CBK268539], the viability at 28.5 h, 10 µM was determined as 91.2%.
Consider `O=C(COc1ccccc1C1CC(=O)Nc2ccc3ccccc3c21)Nc1ccccc1` (stereo not shown) [CBK265704], for which the viability at 28.5 h, 10 µM turned out to be 97.3%.
As for `CCN(CC)CCn1c(=N)n(CC(O)c2ccc(C)cc2)c2ccccc21` (stereo not shown) [CBK262914C], the viability at 28.5 h, 10 µM is 104%.
For `O=C(NCN1CCN(c2ccccc2F)CC1)c1cccnc1` [CBK265530], the viability at 28.5 h, 10 µM is 90%.
Turning to `O=C(CCCN1C(=O)c2cccc3cccc(c23)C1=O)N1CCN(C/C=C/c2ccccc2)CC1` [CBK263300C], the viability at 28.5 h, 10 µM is 103%.
Take `CCOc1ccc(-c2cncc(N[C@@H](C)c3ccccc3)n2)cc1` [CBK065720]: the viability at 28.5 h, 10 µM came to 106%.
With `CCC(CC)C(=O)N1CCCC1c1n[nH]cc1-c1ccncc1` (stereo not shown) [CBK283467], the viability at 28.5 h, 10 µM turned out to be 87.9%.
On to `COC(=O)c1cccn2cc(CN3CCOC4CCCCC43)nc12` (stereo not shown) [CBK304949], for which the viability at 28.5 h, 10 µM is 106%.
The value for `O=c1[nH]n(-c2ccccc2)c(=O)n1Cc1ccccc1F` [CBK122770] was 95%.
As for `c1coc(CNc2cncc(-c3ccc4c(c3)OCO4)n2)c1` [CBK065930], the viability at 28.5 h, 10 µM amounted to 101%.
In the case of `NC(=O)CN1CC2(CCNCC2)c2ccccc21` [CBK116314], the viability at 28.5 h, 10 µM is 117%.
With `COc1ccc(-n2c3c(cc(C(=O)Nc4ccccc4Br)c2=O)C(=O)CCC3)cc1` [CBK293945], the viability at 28.5 h, 10 µM was found to be 95.7%.
The value for `CC(=O)Nc1ccc2n(c1=O)C[C@H]1C[C@@H]2CN(C(=O)COc2ccccc2)C1` [CBK289074] was 89%; that for `CC(C)CNc1nc2c(ncn2[C@H]2C[C@@H](O)[C@@H](CO)O2)c(=O)[nH]1` [CBK201198] was 94.8%.
As to `CC(C)(C)OC(=O)N[C@@H](Cc1ccccc1)CN(Cc1ccccc1)Cc1ccc(S(=O)(=O)N2CCOC2=O)cc1` [CBK028952], the viability at 28.5 h, 10 µM is 86.1%.
As to `CC(Cc1nc(-c2nccn2C(C)C)cs1)n1cc(Cl)cn1` (stereo not shown) [CBK304251], the viability at 28.5 h, 10 µM came to 102%.
Turning to `Cc1nc2ccc(C(=O)c3ccccc3O)cn2c(=O)c1CCC(=O)O` [CBK295618], the viability at 28.5 h, 10 µM is 94.5%.
The figure for `CCCC1(OC(=O)Nc2ccc(Cl)cc2)CCCCC1` [CBK026295] is 91.4%; for `Cc1ccccc1CSc1cccc(F)c1` [CBK002913] it is 109%.
Consider `CC(C)(C)OC(=O)N1CCC(OCc2cn(-c3ccc(-n4cncn4)cc3)nn2)CC1` [CBK149477], for which the viability at 28.5 h, 10 µM stood at 87.1%.
With `CNS(=O)(=O)c1ccc(C)c(C(=O)N(C)Cc2cnn(C)c2)c1` [CBK304026], the viability at 28.5 h, 10 µM was 89.1%.
With `COC(=O)c1ccccc1S(=O)(=O)n1c(=O)n(CCc2c[nH]c3ccccc23)c2ccccc21` [CBK106509], the viability at 28.5 h, 10 µM was determined as 87.2%.
`Nc1nc2ccc(-c3nc4ccccc4o3)cc2s1` [CBK287846]: the viability at 28.5 h, 10 µM is 57.4%.
On to `COc1ccc(C(=O)Cn2nc3nnc(-c4ccccc4)c(-c4ccccc4)n3c2=O)cc1` [CBK286181], for which the viability at 28.5 h, 10 µM was 83.4%.
As to `Cc1cc(-c2nnc(SCC(=O)N3CCCc4ccccc43)o2)no1` [CBK268828], the viability at 28.5 h, 10 µM was determined as 88%.
Consider `CN(C)CCCOC(=O)c1cccnc1Cl` [CBK027436], for which the viability at 28.5 h, 10 µM is 111%.
On to `CCOc1cccc(-c2cncc(N[C@H](C)c3ccccc3)n2)c1` [CBK066042], for which the viability at 28.5 h, 10 µM came out at 103%.
With `CCCCOc1ccc(-c2nonc2NC(=O)COc2ccccc2Cl)cc1` [CBK299792], the viability at 28.5 h, 10 µM was determined as 117%.
The figure for `CCOc1ccc(/N=N\c2ccc(O)c(/C=N\Nc3ccc([N+](=O)[O-])cc3)c2)cc1` [CBK262111] is 97.7%.
On to `COc1cc(OC)c(CN2CC3(C)CC2CC(C)(C)C3)cc1Br` (stereo not shown) [CBK307074], for which the viability at 28.5 h, 10 µM is 86.4%.
In the case of `Cc1c(CC(=O)O)c2c(n1Cc1ccc(F)cc1)CCCC2=O` [CBK287078], the viability at 28.5 h, 10 µM turned out to be 103%.
The value for `O=C(O)COc1ccc(/C=C/c2nc3n(n2)C=COc2ccccc2-3)cc1` [CBK286650] was 80.2%; that for `COc1ccc(Cc2nc(C3CCC3)n(CC3COCCO3)n2)cc1` (stereo not shown) [CBK307378] was 87.8%.
`COc1ccc(F)c(CN(CC(C)(C)CN)C(=O)Nc2c(F)cccc2F)c1` [CBK002405C]: the viability at 28.5 h, 10 µM came to 109%.
`CC1CCc2c(sc(NC(=O)c3ccccc3)c2CN2CCCC2)C1` (stereo not shown) [CBK265908]: the viability at 28.5 h, 10 µM was determined as 98.7%.
Regarding `CC(C)C(CNCc1cncnc1)c1ccnn1C` (stereo not shown) [CBK304190], the viability at 28.5 h, 10 µM was found to be 79.9%.
The value for `COc1cc(OC)nc(C(NC(=O)C2CCN(CCN3C(=O)c4ccccc4C3=O)CC2)c2ccc(F)cc2)n1` (stereo not shown) [CBK148083] was 103%; that for `COc1ccc(-c2cnc(N)c(N[C@@H](C)c3ccccc3)n2)c(OC)c1OC` [CBK063763] was 84.9%; that for `COC(=O)[C@@H]1Cc2ncn(C)c2CN1C(=O)c1ccc(C#N)cc1` [CBK288994] was 76.5%.
Take `Cc1ccc(-n2ncc3c2NC(=O)N2CCCN=C32)cc1` [CBK284416]: the viability at 28.5 h, 10 µM was determined as 110%.
On to `COc1ccc2c(c1)CC(=O)NC21CCN(CCCCC(C)C)CC1` [CBK039839], for which the viability at 28.5 h, 10 µM worked out at 95.3%.
Consider `O=C(Cn1cccc(C(=O)Nc2ccc(F)cc2)c1=O)NC1(c2ccccc2)CCCC1` [CBK286057], for which the viability at 28.5 h, 10 µM is 96.3%.
For the compound `NS(=O)(=O)c1ccc(CNC(=O)c2cc(-c3cccnc3)nc3ccc(Br)cc23)cc1` [CBK267740], the viability at 28.5 h, 10 µM was 96.9%.
The value for `O=C(NCc1cccnc1-n1cccn1)c1c[nH]c(C(=O)N2CCCC2)c1` [CBK298263] was 99.1%.
As to `CCOC(=O)Cc1nnc(-c2cccc(C(F)(F)F)c2)[nH]1` [CBK304385], the viability at 28.5 h, 10 µM is 81.1%.
For the compound `COC(=O)c1ccc(-c2ccsc2)nc1` [CBK149229], the viability at 28.5 h, 10 µM amounted to 116%.
Turning to `CS(=O)(=O)Nc1ccc2c(ccn2Cc2ccccc2)c1` [CBK159527], the viability at 28.5 h, 10 µM was 104%.
On to `O=C(Cn1cc(C(=O)NC2(c3ccccc3)CCCC2)ccc1=O)NCc1ccc(F)cc1` [CBK286027], for which the viability at 28.5 h, 10 µM was 84.4%.
For `O=C1c2ccccc2C(=O)N1Cc1nc2ccccc2c(=O)n1CCN1CCOCC1` [CBK268472], the viability at 28.5 h, 10 µM is 105%.
The figure for `CCOc1ccc(CSC2=NCCN2)cc1Cl` [CBK027449C] is 92.4%; for `CC(NC(=O)CCc1nc2ccccc2n1C)c1ccccn1` (stereo not shown) [CBK281823] it is 89%; for `CCn1c(=O)n(CCC(N)=O)c2cc(S(=O)(=O)N(C)C)ccc21` [CBK305577] it is 99.6%.
The figure for `Cc1cccc(C)c1NC(=O)CN1CCN(c2nccnc2OC2CCCCC2)CC1` [CBK082835T] is 103%; for `O=C(NCCO)C1(Cc2ccc(-c3ccccc3)cc2)CCNC1` (stereo not shown) [CBK283043] it is 83.9%.
Regarding `Oc1c(C(Nc2cccnc2)c2ccccc2OCc2ccccc2)ccc2cccnc12` (stereo not shown) [CBK268587], the viability at 28.5 h, 10 µM stood at 71.5%.
The value for `CN(C(=O)CCn1c(=O)oc2cc(Cl)ccc21)C1CCNC1` (stereo not shown) [CBK304310C] was 101%; that for `Cc1cc(NC(c2cccc([N+](=O)[O-])c2)c2ccc3cccnc3c2O)no1` (stereo not shown) [CBK296083] was 89.1%; that for `O=C(Cn1c(=O)n(Cc2ccco2)c2ncccc21)N1CCCCC1` [CBK283862] was 89.2%.
For `NC(=O)C1CCN(C(=O)CN(c2ccccc2)S(=O)(=O)c2ccccc2[N+](=O)[O-])CC1` [CBK265320], the viability at 28.5 h, 10 µM worked out at 78%.
For the compound `CCN(CCC(C)Sc1ccccc1)c1cncc(Oc2ccc(S(C)(=O)=O)cc2)n1` (stereo not shown) [CBK137186T], the viability at 28.5 h, 10 µM came to 96.5%.
For the compound `CCOc1cc(C)c(Cl)cc1S(=O)(=O)NCc1ccccn1` [CBK268047], the viability at 28.5 h, 10 µM turned out to be 108%.
For `O=S(=O)(Nc1cccc(Cl)c1Cl)c1ccc(Cl)c(Cl)c1` [CBK017446], the viability at 28.5 h, 10 µM was determined as 79.2%.
In the case of `Clc1ccc(SCCN2CCNCC2)cc1` [CBK266077G], the viability at 28.5 h, 10 µM worked out at 94.2%.
Regarding `O=C(c1csnn1)N1CCc2ccccc21` [CBK200408], the viability at 28.5 h, 10 µM worked out at 86%.
The figure for `CC(C)C(=O)Nc1cc2cccnc2nc1-c1cccc(C(F)(F)F)c1` [CBK073657] is 93.7%.
The figure for `Cc1cc2nc(-c3cc(NC(=O)c4cccc([N+](=O)[O-])c4)ccc3O)oc2cc1C` [CBK262855] is 103%; for `O=C(Nc1ccccc1-c1nc2ccccc2s1)c1cc(Br)ccc1Cl` [CBK266280] it is 94.9%.
The figure for `Nc1nc(SCC(=O)c2ccc3c(c2)OCCO3)n[nH]1` [CBK266554] is 107%; for `CCC(=O)NCCc1c[nH]c2ccc([N+](=O)[O-])cc12` [CBK088059] it is 110%.
For the compound `O=C1CC(N2CCN(c3ccc(S(=O)(=O)N4CCOCC4)cc3)CC2)C(=O)N1Cc1ccccc1` (stereo not shown) [CBK268713], the viability at 28.5 h, 10 µM amounted to 107%.
As to `C/N=C1/c2cn3ccccc3c2CCN1C` [CBK022058], the viability at 28.5 h, 10 µM was found to be 116%.

Values taken from article PMC12040169 (PLOS Biology, 2025).
